Experimental findings from PMC7068222, “Inhibition of Tyrosinase by Mercury Chloride: Spectroscopic and Docking Studies” (Frontiers in Pharmacology, 2020) are described below.

Where two headings read alike, the source gives them in different places.

Assay [1] has as its target T1, immobilized tyrosinase (Agaricus bisporus, UniProt C7FF04).
T1 construct: purchased Sigma-Aldrich
Type of assay: biochemical, mushroom. The method, then:
Experiments were conducted to confirm the inhibitory mechanism of HgCl2 on tyrosinase furtherly by using immobilized tyrosinase. In brief, we added 200 µL of diluted tyrosinase (2500 U/mL) to each well of a 24-well polystyrene plate and then covered the plate and incubated it at 4°C overnight to produce immobilized tyrosinase. The plate was brought to room temperature, and we thoroughly decanted the solution from wells and washed the wells two times with PBS to remove the unfixed enzyme. We added 3 mL of inhibitor solution to each well and incubated them at room temperature for 30 mins to assure the fully reaction between the inhibitor and the enzyme, discarding the liquid following by washing the wells two times with PBS to remove the excess inhibitor. Then, 3 mL of PBS was added to each well, and they stood for 10 mins to make the dissociation of inhibitor-tyrosinase complex. WE thoroughly decanted the solution from wells to remove the dissociated inhibitor (the procedure was repeated three times). Finally, 3 mL of substrate (dopa) was added to each well and react at room temperature for 30 mins to test the residual activity of tyrosinase.

For assay [2], the system named is tyrosinase (monophenolase and diphenolase activity) in the presence of HgCl2. The assay is described as follows: Effect of premixing amino acids with HgCl2 on tyrosinase inhibition (protection of enzyme activity). Type of assay: biochemical, mushroom. Here is the method: According to the results of docking study, we furtherly checked the interactions between HgCl2 and amino acid. We assumed that if HgCl2 indeed binds to the amino acid residues of the enzyme, such as His, Val, Glu, and Ala, premixing the amino acid with HgCl2 would affect the inhibitory effects. Thus, the monophenolase and diphenolase activity of tyrosinase both were determined by adding the mixture of HgCl2 and amino acid. The mixture was prepared just before use by adding an aliquot of 200 μL HgCl2 solution to the equal volume of amino acid solution, and which was allowed to react for 10 mins at room temperature. […] In brief, 5 and 10 mmol/L solutions of His, HgCl2 were prepared beforehand, and the mixture was produced by mixing the His and HgCl2 solutions (10 mmol/L) in the volume ratio of 1:1. The spectra of the samples at the wavelengths between 200 and 800 nm were scanned by using UV spectrophotometer (UV 2550, SHIMADZU).The experiment was repeated three times.

The target of assay [3] is T2, mushroom tyrosinase (diphenolase activity) (Agaricus bisporus, UniProt C7FF04). Format: biochemical. The settings on record: substrate dopa 0.5 mmol/L, tyrosinase 13.33 U/mL, pH 6.8, 305 K.
Target sequence in this assay (C7FF04 1-392): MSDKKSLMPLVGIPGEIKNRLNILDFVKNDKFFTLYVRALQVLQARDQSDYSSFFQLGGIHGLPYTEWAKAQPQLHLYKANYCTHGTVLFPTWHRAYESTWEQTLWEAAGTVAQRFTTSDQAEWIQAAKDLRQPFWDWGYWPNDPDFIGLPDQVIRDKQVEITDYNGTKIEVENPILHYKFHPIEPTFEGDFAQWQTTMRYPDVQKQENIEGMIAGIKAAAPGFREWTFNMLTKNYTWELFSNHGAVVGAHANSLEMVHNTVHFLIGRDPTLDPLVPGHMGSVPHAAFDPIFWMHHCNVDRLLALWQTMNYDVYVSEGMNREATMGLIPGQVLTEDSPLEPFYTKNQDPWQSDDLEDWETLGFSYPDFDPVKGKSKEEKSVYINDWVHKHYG
Method: The assays were carried out by using 3 mL of reaction system containing 0.5 mmol/L substrate (dopa) in 50 mmol/L PBS (pH = 6.8) at 305 K. The final concentration of tyrosinase was 13.33 U/mL. […] Relative enzymatic activity (%) = (A1-A3)/A2×100%. The experiment was repeated three times. The IC50 value was calculated as the concentration (leading to achieve 50% inhibition) according to the equation, which is obtained by curve fitting of the enzyme activity versus the concentrations of inhibitor.
In assay [4] the target is T2, mushroom tyrosinase (diphenolase activity). The assay is described as follows: Kinetic analysis of inhibition mechanism and type (enzyme-concentration plots, Lineweaver-Burk plot, secondary plot). Format: biochemical. Also noted: purchased Sigma-Aldrich. The text has this: (1) 1/ν=Km/Vmax(1+[I]/Ki)1/[S]+1+[I]/Ki/Vmax and a secondary plot is presented below
(2) In.=[I]/KiVmax+1/Vmax where ν is velocity of the enzyme reaction calculated by a change in absorbance at the wavelength of 475 nm per minute in the absence and presence of HgCl2. K m and K i are the Michaelis–Menten constant and inhibition constant, respectively. The values of K m can be calculated from the equation (1). [I] and [S] are the concentrations of inhibitor and substrate, respectively. In. is the intercept value of the Lineweaver–Burk curve. K i should be calculated by the secondary plot of In. vs. [I].
The relationship between enzyme activity (expressed as the rate of the oxidation reaction) and its concentration (6.67, 13.33, 20, 26.67, and 33.33 U/mL) in the presence of different concentrations of HgCl2 (0, 4.17, 16.67, 33.33, and 66.67 μmol/L) was investigated.
Target sequence in this assay (C7FF04 1-392 limits assumed): as the sequence (C7FF04 1-392) above

In assay [5] the target is T3, tyrosinase (Agaricus bisporus, UniProt C7FF04).
T3 construct: purchased Sigma-Aldrich
T3 sequence (C7FF04 1-392): as above
The assay is described as follows: Intrinsic fluorescence quenching of tyrosinase. Type of assay: binding, mushroom. The settings on record: for Kq (quenching rate constant): Kq = Ksv/τ0, τ0 = 10^-8 s. The method, then:
The fluorescence emission spectra were obtained using Spectrofluorometer FS5 (Edinburgh Instruments, England) equipped with a 150 W xenon lamp and a thermostat bath. We added a 2.0 mL aliquot of tyrosinase solution (400 U/mL) to the quartz cuvette (1 cm path length) and gradually added 2 mmol/L solution of HgCl2 to give concentrations ranged from 0 to 400 μmol/L. After five-minute incubation periods, fluorescence in the range of 290–500 nm was measured while the excitation wavelength was fixed at 280 nm. All the fluorescence data collected from these experiments were corrected for absorption of excitation light and re-absorption of emitted light according to the following equation: ([Wang et al., 2015])
where F c and F m represent the corrected and measured fluorescence, respectively. A1 and A2 are the absorbance of HgCl2 at excitation and emission wavelengths, respectively.
To identify the interaction mechanism of HgCl2 on tyrosinase, the data of fluorescence quenching were presented in the form of a Stern-Volmer plot, using the following equation:
(4) F0/F=1+Kqτ0[Q]=1+Ksv[Q]
where, F 0 and F represent the steady-state fluorescence intensities in the absence and presence of HgCl2 (quencher), respectively, [Q] denotes the concentration of HgCl2, K q is the quenching rate constant of the biomolecule (K q = K sv/τ0), K sv is the Stern–Volmer dynamic quenching constant, and τ0 is the average lifetime of the fluorophore in the absence of quencher (τ0 = 10^-8 s). The value of K sv determined by the linear regression plot of F0/F vs. [Q] at 298 and 304 K were (2.14 ± 0.05) × 10^4 and 1.83 ± 0.03 × 10^4 L/mol, respectively. […] K sv values decreased gradually with the increase of the temperatures, which manifested that the fluorescence quenching of tyrosinase by HgCl2 was a static quenching process ([Lin et al., 2018]).
For static quenching interactions, if there are similar and independent sites in biological molecules, the apparent binding constants (K a) and the number of binding sites (n) can be obtained from the following equation:
(5) logF0−F/F=logKa+nlog[Q]

Assay [6] has as its target T4, mushroom tyrosinase (monophenolase activity) (Agaricus bisporus, UniProt C7FF04).
T4 construct: purchased Sigma-Aldrich
Type of assay: biochemical. Here is the method:
The method was modified based on the previous description ([Chen et al., 2016]). […] The appropriate blanks (containing both tyrosine and HgCl2 but without tyrosinase) were tested and subtracted to correct the absorbance.

[7] abbreviates: from plot of log[(F0-F)/F] vs log[Q].

T4 sequence (C7FF04 1-392 limits assumed): as the sequence (C7FF04 1-392) above
T1 sequence (C7FF04 1-392 limits assumed): as the sequence (C7FF04 1-392) above

Turning to `CCO` [95% ethanol, ethanol, reference compound], in assay [1], the “Relative activity (%) of immobilized tyrosinase after inhibitor treatment and washing” value is given as 3.34%.
Turning to `C[C@H](N)C(=O)O` [Ala, alanine], in assay [2] (amino acid premixed with HgCl2), the “effect on protecting the monophenolase activity in the presence of HgCl2” value is reported as “no effects”.
On the same count and under the same terms, the value for `N[C@@H](CCC(=O)O)C(=O)O` [Glu, glutamate] was “no effects”.
As usually defined, the IC50 is the concentration that inhibits the measured activity by half. Low readings indicate higher potency, high ones lower potency. A word on the Ki: it is a measure of affinity in units of concentration, obtained from inhibition or displacement. In assay [3], `[Cl][Hg][Cl]` [HgCl2, Mercuric chloride] showed an IC50 of 77.9 µM. Besides, the “inhibition type (Lineweaver-Burk)” value in assay [4] (diphenolase activity, tyrosinase 13.33 U/mL) is recorded as “non-competitive inhibition”. For the same molecule, in assay [4] (diphenolase, secondary plot of intercept vs inhibitor concentration, read-out: Ki (inhibition constant)), the Ki is 29.4 µM. Further, the “inhibition mechanism (reversibility)” value in assay [4] (plots of activity vs enzyme concentration, HgCl2 0-66.67 μmol/L) is recorded as “irreversible”. Also, the “Relative activity (%) of immobilized tyrosinase after inhibitor treatment and washing” value in assay [1] (kojic acid and HgCl2 666.67 μmol/L, 30 min incubation, PBS treatment = 100%, substrate dopa) is 28.32%. For the same molecule, in assay [5] (298 K), the “Ksv (Stern-Volmer quenching constant)” value was “(2.14 ± 0.05) × 10^4 L/mol” and the “Kq (quenching rate constant)” value is recorded as “(2.14 ± 0.05) × 10^12 L/mol/s”. In assay [5] (304 K), the “Ksv (Stern-Volmer quenching constant)” value was 1.83 ± 0.03 × 10^4 L/mol and the “Kq (quenching rate constant)” value is recorded as “(1.83 ± 0.03) × 10^12 L/mol/s”. For the same molecule, in assay [5] (setting [7]), the “Ka (apparent binding constant)” value is given as “(2.87 ± 0.02) × 10^4 L/mol” and the “n (number of binding sites)” value came to 0.96 ± 0.01. For the same molecule, in assay [6] (prolonged with increasing inhibitor concentration, without inhibitor 1.44 min (kojic acid series), 2.00 min (HgCl2 series)), the “lag time of monophenolase reaction at highest inhibitor concentration” value was found to be 13.4 min. The same molecule gave an IC50 in assay [6] (substrate tyrosine 0.5 mmol/L, tyrosinase 33.33 U/mL, pH 6.8, 305 K) of 30 µM.
For `N[C@@H](Cc1c[nH]cn1)C(=O)O` [His, Histidine], the “protecting capability on diphenolase activity in the presence of HgCl2” value stood at 48.83 ± 1.89% in assay [2] (His 10.42 μmol/L) and 83.43 ± 2.56% in assay [2] (His 666.67 μmol/L). Moreover, in assay [2] (amino acid premixed with HgCl2), the “effect on protecting the diphenolase activity in the presence of HgCl2” value was “significant effect”. Moreover, the “effect on protecting the monophenolase activity in the presence of HgCl2” value in assay [2] (amino acid premixed with HgCl2) is reported as “protect the monophenolase activity”.
As for `CC(C)[C@H](N)C(=O)O` [Val, valine], the “effect on protecting the monophenolase activity in the presence of HgCl2” value in assay [2] (amino acid premixed with HgCl2) is recorded as “no effects”.
